Assay results from US20100130522A1, “COMPOUNDS FOR INFLAMMATION AND IMMUNE-RELATED USES” (Synta Pharmaceuticals Corp., priority 2008, published 2010).

Experiments:
[1] = target: T1, CRACM1/STIM1-CHOK1 (Homo sapiens, UniProt Q96D31); assay: Patch clamp inhibition of ICRAC current in CRACM1/STIM1-CHOK1 cells; type: cell-based; settings: 500 nM; given as activity class
T1 construct: Full length human Stim1, CracM1, CracM2 and CracM3 cDNA; Stim1 induced with doxycycline
Protocol: Manual patch clamp experiments are conducted in the tight-seal whole-cell configuration at room temperature (21-25° C.). Patch pipettes are fashioned from borosilicate glass capillary tubes and have resistances between 2-4 MΩ after filling with standard intracellular solution. High resolution current recordings are acquired with a computer-based patch clamp amplifier system (EPC-10, HEKA, Lambrecht, Germany). All voltages are corrected for a liquid junction potential of 10 mV between external and internal solutions with glutamate as the intracellular anion. Currents are filtered at 2.9 kHz and digitized at 10 μs intervals. Capacitive currents and series resistance are determined and corrected before each voltage ramp using the automatic capacitance compensation of the EPC-10.
Automated patch clamp experiments are conducted with the QPatch 16 (Sophion Bioscience, Ballerup, Denmark) at room temperature (21-25° C.). Immediately following the establishment of giga-seal whole-cell configuration, the cells membrane potential is clamped at 0 mV. Voltage ramps of 50 ms duration spanning the voltage range of −100 to +100 mV are then stimulated at a rate of 0.33 Hz. Currents are filtered at 2.9 kHz and digitized at 200 μs intervals. Capacitive currents and series resistance are determined and corrected before each voltage ramp using the automatic capacitance compensation.
In general, a whole cell patch clamp method is used to examine the effects of a compound of the invention on a channel(s) that mediates ICRAC. In such experiments, a baseline ICRAC measurement is established within the first 70 voltage ramps, or 140 seconds, for a patched cell. Then the cells are perfused with the compound to be tested and the effect of the compound on ICRAC is measured for at least an additional 440 to 500 seconds. A compound that modulates ICRAC (e.g., inhibits) is a compound that is useful in the invention for modulating CRAG ion channel activity.
Off-line analysis with the Heka PatchMaster software is used to separate the ICRAC membrane current from the cells basal background currents. In a typical recording, InsP3 stimulated ICRAC currents begin to develop in 6 to 12 seconds after whole cell is established. Therefore, the first 1-4 voltage ramps represent the basal membrane currents in the absence of ICRAC and the average value is subtracted from all subsequent traces. The current value at −80 mV for each ramp trace is then measured and plotted against time. The resulting current versus time data is exported into a Microsoft Excel spreadsheet. The % ICRAC inhibition in each cell is calculated by comparing the amount of current just prior to the compound perfusion to the amount of current after the cells has been perfused with the compound for 440-500 seconds. The IC50 value and Hill coefficient for each compound is estimated by fitting all the individual data points to a single-site Hill equation.
TREx™-CHO cells were transfected with human Stim1 (recombinant DNA in pcDNA4/TO/myc-His™ A with a myc epitope tag in the N-terminal) and either CracM1, CracM2 or CracM3 (recombinant DNA in pcDNA 3.1 with a HA epitope tag in the N-terminal). Stably expressing cells were selected by growing the transfected cells in antibiotics for two to three weeks. Individual cell clones were isolated via serial dilution. Full length human Stim1, CracM1, CracM2 and CracM3 cDNA, TREx™-CHO cells, pcDNA4/TO/myc-His™ A and pcDNA 3.1 were purchased from Invitrogen (Carlsbad, Calif.). All cells clones are grown in Ham's F-12 media supplemented with 10% fetal bovine serum, penicillin 100 U/ml, streptomycin 100 ? g/ml, Zeocin™ (200 ? g/ml), Geneticin (500 ? g/ml) and blasticidin (10 ? g/ml) in an atmosphere of 95% air/5% CO2. Stim1 expression was induced with doxycycline (1 ? g/ml) for 16-20 hrs. […]

[2] = test system: IL-2 production, Jurkat cells; assay: Inhibition of IL-2 production in PHA-activated Jurkat cells (ELISA); type: cell-based; settings: Homo sapiens, 1% FBS
Protocol: Jurkat cells were placed in a 96 well plate (0.5 million cells per well in 1% FBS medium), and then a test compound of this invention was added at different concentrations. After 10 minutes, the cells were activated with PHA (final concentration 2.5 μg/mL) and incubated for 20 hours at 37° C. under 5% CO2. The final volume was 200 μL. Following incubation, the cells were centrifuged, and the supernatants collected and stored at −70° C. prior to assaying for IL-2 production. A commercial ELISA kit (IL-2 Eli-pair, Diaclone Research, Besancon, France) was used to detect production of IL-2, from which dose response curves were obtained. The IC50 value was calculated as the concentration at which 50% of maximum IL-2 production after stimulation was inhibited versus a non-stimulation control.

T1 sequence (Q96D31 whole entry): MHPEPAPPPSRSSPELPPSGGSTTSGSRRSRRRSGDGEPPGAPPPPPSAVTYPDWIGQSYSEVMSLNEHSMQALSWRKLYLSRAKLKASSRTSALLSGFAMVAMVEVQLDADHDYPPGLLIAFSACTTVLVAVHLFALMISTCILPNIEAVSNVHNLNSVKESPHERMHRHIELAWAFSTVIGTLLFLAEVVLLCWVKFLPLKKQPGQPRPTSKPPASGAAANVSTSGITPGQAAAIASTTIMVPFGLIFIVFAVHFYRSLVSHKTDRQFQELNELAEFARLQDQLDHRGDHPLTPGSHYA

Structure (SMILES)	inhibition at 0.5 µM [1] [%]	IC50 ([2]; given as activity class) [nM]	IC50 ([2]; numeric values) [nM]
Cc1ccc(C#Cc2cccnc2)cc1-c1cnc(NC(=O)c2c(F)cccc2F)cn1 [Compound 1, 2,6-difluoro-N-(5-(2-methyl-5-(pyridin-3-ylethynyl)phenyl)-pyrazin-2-yl)benzamide]	70 to 100	< 50	
Cc1ccc(C#Cc2cccnc2)cc1-c1ccc(NC(=O)c2c(F)cccc2F)cc1 [Compound 2, 2,6-difluoro-N-(2′-methyl-5′-(pyridin-3-ylethynyl)biphenyl-4-yl)benzamide]	70 to 100	< 50	
Cc1ccc(Nc2ccccn2)cc1-c1ccc(NC(=O)c2c(F)cccc2F)cc1 [Compound 3, 2,6-difluoro-N-(2′-methyl-5′-(pyridin-2-ylamino)biphenyl-4-yl)benzamide]	50 to 70	< 50	
O=C(Nc1ccc(-c2cc(Oc3ccccn3)ccc2Cl)cc1)c1c(F)cccc1F [Compound 4, N-(2′-chloro-5′-(pyridin-2-yloxy)biphenyl-4-yl)-2,6-difluorobenzamide]	70 to 100	< 50	
O=C(Nc1ccc(-c2cc(Oc3ccccn3)ccc2Cl)cn1)c1c(F)cccc1F [Compound 5, N-(5-(2-chloro-5-(pyridin-2-yloxy)phenyl)pyridin-2-yl)-2,6-difluorobenzamide]	70 to 100	< 50	
Cc1ccc(Oc2ccccn2)cc1-c1ccc(NC(=O)c2c(F)cccc2F)nc1 [Compound 9, 2,6-difluoro-N-(5-(2-methyl-5-(pyridin-2-yloxy)phenyl)-pyridin-2-yl)benzamide]	70 to 100	< 50	
Cc1cnc(Oc2ccc(Cl)c(-c3ccc(NC(=O)c4c(F)cccc4F)cc3)c2)s1 [Compound 10, N-(2′-chloro-5′-(5-methylthiazol-2-yloxy)biphenyl-4-yl)-2,6-difluorobenzamide]	70 to 100	50 to 100	
O=C(Nc1ccc(-c2cc(Oc3nccs3)ccc2Cl)cc1)c1c(F)cccc1F [Compound 11, N-(2′-chloro-5′-(thiazol-2-yloxy)biphenyl-4-yl)-2,6-difluorobenzamide]	70 to 100	< 50	
O=C(Nc1ccc(-c2cc(Oc3nccs3)ccc2Cl)cn1)c1c(F)cccc1F [Compound 12, N-(5-(2-chloro-5-(thiazol-2-yloxy)phenyl)pyridin-2-yl)-2,6-difluorobenzamide]	70 to 100	< 50	
Cc1ccc(OCc2ccccn2)cc1-c1ccc(NC(=O)c2c(F)cccc2F)cc1 [Compound 13, 2,6-difluoro-N-(2′-methyl-5′-(pyridin-2-ylmethoxy)-biphenyl-4-yl)benzamide]	70 to 100	< 50	
Cc1ccc(Cn2ccnc2)cc1-c1ccc(NC(=O)c2c(F)cccc2F)cc1 [Compound 14, N-(5′-((1H-imidazol-1-yl)methyl)-2′-methylbiphenyl-4-yl)-2,6-difluorobenzamide]	70 to 100	< 50	
Cc1ccc(CCc2cccnc2)cc1-c1ccc(NC(=O)c2c(F)cccc2F)cc1 [Compound 15, 2,6-difluoro-N-(2′-methyl-5′-(2-(pyridin-3-yl)ethyl)biphenyl-4-yl)benzamide]	70 to 100	< 50	
Cc1ccc(CCc2cccnc2)cc1-c1cnc(NC(=O)c2c(F)cccc2F)cn1 [Compound 16, 2,6-difluoro-N-(5-(2-methyl-5-(2-(pyridin-3-yl)ethyl)phenyl)-pyrazin-2-yl)benzamide]	50 to 70	< 50	
Cc1ccc(CCc2ccccn2)cc1-c1ccc(NC(=O)c2c(F)cccc2F)cc1 [Compound 17, 2,6-difluoro-N-(2′-methyl-5′-(2-(pyridin-2-yl)ethyl)biphenyl-4-yl)benzamide]	70 to 100	50 to 100	
Cn1cncc1-c1cnc(-c2ccc(Cl)c(-c3ccc(NC(=O)c4c(F)cccc4F)nc3)c2)s1 [Compound 18, N-(5-(2-chloro-5-(5-(1-methyl-1H-imidazol-5-yl)thiazol-2-yl)phenyl)pyridin-2-yl)-2,6-difluorobenzamide]	50 to 70	50 to 100	
Cc1ccc(Oc2ccccn2)cc1-c1cnc(NC(=O)c2c(F)cccc2F)cn1 [Compound 32, 2,6-difluoro-N-(5-(2-methyl-5-(pyridin-2-yloxy)phenyl)pyrazin-2-yl)benzamide]			27
Cc1ccc(Oc2ccccn2)cc1-c1ccc(NC(=O)c2ccncc2F)nc1 [Compound 35, 3-fluoro-N-(5-(2-methyl-5-(pyridin-2-yloxy)phenyl)pyridin-2-yl)isonicotinamide]			16
O=C(Nc1cnc(-c2cc(Oc3ccccn3)ccc2Cl)cn1)c1c(F)cccc1F [Compound 36, N-(5-(2-chloro-5-(pyridin-2-yloxy)phenyl)pyrazin-2-yl)-2,6-difluorobenzamide]			16
COc1ccc(Oc2ccccn2)cc1-c1cnc(NC(=O)c2c(F)cccc2F)cn1 [Compound 39, 2,6-difluoro-N-(5-(2-methoxy-5-(pyridin-2-yloxy)phenyl)pyrazin-2-yl)benzamide]			25

Next, values leading:

inhibition at 0.5 µM [1] [%]	IC50 ([2]; given as activity class) [nM]	IC50 ([2]; numeric values) [nM]	Structure (SMILES)
70 to 100	< 50		Cc1ccc(Oc2cccnc2)cc1-c1ccc(NC(=O)c2c(F)cccc2F)cc1 [Compound 6, 2,6-difluoro-N-(2′-methyl-5′-(pyridin-3-yloxy)biphenyl-4-yl)benzamide]
70 to 100	< 50		Cc1ccc(Oc2cccnc2)cc1-c1ccc(NC(=O)c2c(F)cccc2F)nc1 [Compound 7, 2,6-difluoro-N-(5-(2-methyl-5-(pyridin-3-yloxy)phenyl)-pyridin-2-yl)benzamide]
70 to 100	< 50		Cc1ccc(Oc2cccnc2)cc1-c1cnc(NC(=O)c2c(F)cccc2F)cn1 [Compound 8, 2,6-difluoro-N-(5-(2-methyl-5-(pyridin-3-yloxy)phenyl)-pyrazin-2-yl)benzamide]
		90	Cc1ccc(Oc2ccccn2)cc1-c1ccc(NC(=O)c2cccc(F)c2C)nc1 [Compound 33, 3-fluoro-2-methyl-N-(5-(2-methyl-5-(pyridin-2-yloxy)phenyl)pyridin-2-yl)benzamide]
		14	Cc1cc(Oc2cccnc2)ncc1-c1ccc(NC(=O)c2cccc(F)c2C)nc1 [Compound 34, 3-fluoro-2-methyl-N-(4′-methyl-6′-(pyridin-3-yloxy)-3,3′-bipyridin-6-yl)benzamide]
		21	COc1ccc(Oc2ccccn2)cc1-c1ccc(NC(=O)c2cccc(F)c2C)nc1 [Compound 38, 3-fluoro-N-(5-(2-methoxy-5-(pyridin-2-yloxy)phenyl)pyridin-2-yl)-2-methylbenzamide]
		39	Cc1ccc(Oc2ccncc2)cc1-c1ccc(NC(=O)c2cccc(F)c2C)nc1 [Compound 40, 3-fluoro-2-methyl-N-(5-(2-methyl-5-(pyridin-4-yloxy)phenyl)pyridin-2-yl)benzamide]
		47	Cc1c(F)cccc1C(=O)Nc1ccc(-c2cc(Oc3cccnc3)ccc2C(F)(F)F)cn1 [Compound 41, 3-fluoro-2-methyl-N-(5-(5-(pyridin-3-yloxy)-2-(trifluoromethyl)phenyl)pyridin-2-yl)benzamide]
